Reference: patent publication US20260007681A1, “INDOLE DERIVATIVES AS ESTROGEN RECEPTOR DEGRADERS” (REGENTS OF THE UNIVERSITY OF MICHIGAN, priority 2022, published 2026)

What follows are molecules tested against ER (Homo sapiens (Human), UniProt P03372) (assay: Western blot analysis (Compounds B1-B278)). Details: ER degradation by traditional Western blot; DC50 classes.
Type: cell-based
Summary of the method: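 Relative target-protein levels come from densitometry of immunoblots, normalized to GAPDH. Lysates from treated cells were prepared in RIPA buffer (pH 7.6) containing protease inhibitors, and equal protein amounts, checked by BCA, were separated on 10% gels and blotted onto PVDF.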

Chain of ER (P03372 whole entry): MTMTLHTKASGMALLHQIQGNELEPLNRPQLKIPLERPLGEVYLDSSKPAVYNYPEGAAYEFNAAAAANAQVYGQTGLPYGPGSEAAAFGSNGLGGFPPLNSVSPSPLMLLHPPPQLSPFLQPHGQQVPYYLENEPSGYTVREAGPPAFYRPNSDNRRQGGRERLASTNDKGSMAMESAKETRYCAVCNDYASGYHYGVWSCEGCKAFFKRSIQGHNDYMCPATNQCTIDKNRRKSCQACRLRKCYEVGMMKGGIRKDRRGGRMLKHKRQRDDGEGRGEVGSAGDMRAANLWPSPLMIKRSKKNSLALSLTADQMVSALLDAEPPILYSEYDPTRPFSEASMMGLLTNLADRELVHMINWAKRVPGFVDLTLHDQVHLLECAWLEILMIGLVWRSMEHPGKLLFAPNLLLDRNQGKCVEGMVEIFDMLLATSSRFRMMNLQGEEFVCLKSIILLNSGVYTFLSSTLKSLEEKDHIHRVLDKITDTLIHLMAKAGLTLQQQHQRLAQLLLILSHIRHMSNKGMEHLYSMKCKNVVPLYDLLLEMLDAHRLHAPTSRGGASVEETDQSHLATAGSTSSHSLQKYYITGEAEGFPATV

Question: `C[C@@H]1Cc2c([nH]c3ccccc23)[C@@H](c2c(F)cc(N3CCC4(CCN(C(=O)CN5Cc6cc7c(cc6C5)C(=O)N(C5CCC(=O)NC5=O)C7=O)CC4)CC3)cc2F)N1CC(F)(F)F` (stereo partly drawn) [Compound B199, 6-(2-(9-(3,5-difluoro-4-((1R,3R)-3-methyl-2-(2,2,2-trifluoroethyl)-2,3,4,9-tetrahydro-1H-pyrido[3,4-b]indol-1-yl)phenyl)-3,9-diazaspiro[5.5]undecan-3-yl)-2-oxoethyl)-2-(2,6-dioxopiperidin-3-yl)-6,7-dihydropyrrolo[3,4-f]isoindole-1,3(2H,5H)-dione] was tested. Which “Traditional Western Degradation Potency” value did it give?
Answer: The value was “B (“B”: 10-100 nM)”.

Question: How did the “Traditional Western Degradation Potency” value turn out when `C[C@@H]1Cc2c([nH]c3ccccc23)[C@@H](c2c(F)cc(N3CCC4(CC3)CN(C(=O)CN3Cc5cc6c(cc5C3)C(=O)N(C3CCC(=O)NC3=O)C6=O)C4)cc2F)N1CC(F)(F)F` (stereo partly drawn) [Compound B200, 6-(2-(7-(3,5-difluoro-4-((1R,3R)-3-methyl-2-(2,2,2-trifluoroethyl)-2,3,4,9-tetrahydro-1H-pyrido[3,4-b]indol-1-yl)phenyl)-2,7-diazaspiro[3.5]nonan-2-yl)-2-oxoethyl)-2-(2,6-dioxopiperidin-3-yl)-6,7-dihydropyrrolo[3,4-f]isoindole-1,3(2H,5H)-dione] was run?
Answer: The value was “B (“B”: 10-100 nM)”.

Question: For `C[C@@H]1Cc2c([nH]c3ccccc23)[C@@H](c2c(F)cc(N3CCC(C(=O)N4CCC(N5Cc6cc7c(cc6C5)C(=O)N(C5CCC(=O)NC5=O)C7=O)CC4)CC3)cc2F)N1CC(F)(F)F` (stereo partly drawn) [Compound B201, 6-(1-(1-(3,5-difluoro-4-((1R,3R)-3-methyl-2-(2,2,2-trifluoroethyl)-2,3,4,9-tetrahydro-1H-pyrido[3,4-b]indol-1-yl)phenyl)piperidine-4-carbonyl)piperidin-4-yl)-2-(2,6-dioxopiperidin-3-yl)-6,7-dihydropyrrolo[3,4-f]isoindole-1,3(2H,5H)-dione], which “Traditional Western Degradation Potency” value is on record?
Answer: Its value is “B (“B”: 10-100 nM)”.

Question: `C[C@@H]1Cc2c([nH]c3ccccc23)[C@@H](c2c(F)cc(N3CC(C(=O)N4CC(N5Cc6cc7c(cc6C5)C(=O)N(C5CCC(=O)NC5=O)C7=O)C4)C3)cc2F)N1CC(F)F` (stereo partly drawn) [Compound B202, 6-(1-(1-(4-((1R,3R)-2-(2,2-difluoroethyl)-3-methyl-2,3,4,9-tetrahydro-1H-pyrido[3,4-b]indol-1-yl)-3,5-difluorophenyl)azetidine-3-carbonyl)azetidin-3-yl)-2-(2,6-dioxopiperidin-3-yl)-6,7-dihydropyrrolo[3,4-f]isoindole-1,3(2H,5H)-dione] was tested. Which “Traditional Western Degradation Potency” value did it give?
Answer: Its value is “B (“B”: 10-100 nM)”.

Question: `C[C@@H]1Cc2c([nH]c3ccccc23)[C@@H](c2c(F)cc(N3CC(C(=O)N4CC(CN5Cc6cc7c(cc6C5)C(=O)N(C5CCC(=O)NC5=O)C7=O)C4)C3)cc2F)N1CC(F)F` (stereo partly drawn) [Compound B203, 6-((1-(1-(4-((1R,3R)-2-(2,2-difluoroethyl)-3-methyl-2,3,4,9-tetrahydro-1H-pyrido[3,4-b]indol-1-yl)-3,5-difluorophenyl)azetidine-3-carbonyl)azetidin-3-yl)methyl)-2-(2,6-dioxopiperidin-3-yl)-6,7-dihydropyrrolo[3,4-f]isoindole-1,3(2H,5H)-dione] was tested. Which “Traditional Western Degradation Potency” value did it give?
Answer: Its value is “B (“B”: 10-100 nM)”.

Question: For `C[C@@H]1Cc2c([nH]c3ccccc23)[C@@H](c2c(F)cc(N3CCC4(CCN(CC5Cc6cc7c(cc6C5)C(=O)N(C5CCC(=O)NC5=O)C7=O)CC4)CC3)cc2F)N1CC(F)(F)F` (stereo partly drawn) [Compound B204, 6-((9-(3,5-difluoro-4-((1R,3R)-3-methyl-2-(2,2,2-trifluoroethyl)-2,3,4,9-tetrahydro-1H-pyrido[3,4-b]indol-1-yl)phenyl)-3,9-diazaspiro[5.5]undecan-3-yl)methyl)-2-(2,6-dioxopiperidin-3-yl)-6,7-dihydrocyclopenta[f]isoindole-1,3(2H,5H)-dione], which “Traditional Western Degradation Potency” value is on record?
Answer: Its value is “C (“C”: >100 nM)”.

Question: With `C[C@@H]1Cc2c([nH]c3ccccc23)[C@@H](c2c(F)cc(N3CCC4(CC3)CN(CC3Cc5cc6c(cc5C3)C(=O)N(C3CCC(=O)NC3=O)C6=O)C4)cc2F)N1CC(F)F` (stereo partly drawn) [Compound B205, 6-((7-(4-((1R,3R)-2-(2,2-difluoroethyl)-3-methyl-2,3,4,9-tetrahydro-1H-pyrido[3,4-b]indol-1-yl)-3,5-difluorophenyl)-2,7-diazaspiro[3.5]nonan-2-yl)methyl)-2-(2,6-dioxopiperidin-3-yl)-6,7-dihydrocyclopenta[f]isoindole-1,3(2H,5H)-dione] as the molecule, how does the “Traditional Western Degradation Potency” value read?
Answer: Its value is “C (“C”: >100 nM)”.

Question: With `C[C@@H]1Cc2c([nH]c3ccccc23)[C@@H](c2c(F)cc(N3CCC(C(=O)N4CCC(CN5Cc6cc7c(cc6C5)C(=O)N(C5CCC(=O)NC5=O)C7=O)CC4)CC3)cc2F)N1CC(F)F` (stereo partly drawn) [Compound B206, 6-((1-(1-(4-((1R,3R)-2-(2,2-difluoroethyl)-3-methyl-2,3,4,9-tetrahydro-1H-pyrido[3,4-b]indol-1-yl)-3,5-difluorophenyl)piperidine-4-carbonyl)piperidin-4-yl)methyl)-2-(2,6-dioxopiperidin-3-yl)-6,7-dihydropyrrolo[3,4-f]isoindole-1,3(2H,5H)-dione] as the molecule, how does the “Traditional Western Degradation Potency” value read?
Answer: The value was “C (“C”: >100 nM)”.

Question: How did the “Traditional Western Degradation Potency” value turn out when `C[C@@H]1Cc2c([nH]c3ccccc23)[C@@H](c2c(F)cc(N3CCC(C(=O)N4CC(CN5Cc6cc7c(cc6C5)C(=O)N(C5CCC(=O)NC5=O)C7=O)C4)CC3)cc2F)N1CC(F)F` (stereo partly drawn) [Compound B207, 6-((1-(1-(4-((1R,3R)-2-(2,2-difluoroethyl)-3-methyl-2,3,4,9-tetrahydro-1H-pyrido[3,4-b]indol-1-yl)-3,5-difluorophenyl)piperidine-4-carbonyl)azetidin-3-yl)methyl)-2-(2,6-dioxopiperidin-3-yl)-6,7-dihydropyrrolo[3,4-f]isoindole-1,3(2H,5H)-dione] was run?
Answer: Its value is “B (“B”: 10-100 nM)”.

Question: How did the “Traditional Western Degradation Potency” value turn out when `C[C@@H]1Cc2c([nH]c3ccccc23)[C@@H](c2c(F)cc(N3CCC(C(=O)N4CC(N5Cc6cc7c(cc6C5)C(=O)N(C5CCC(=O)NC5=O)C7=O)C4)CC3)cc2F)N1CC(F)F` (stereo partly drawn) [Compound B208, 6-(1-(1-(4-((1R,3R)-2-(2,2-difluoroethyl)-3-methyl-2,3,4,9-tetrahydro-1H-pyrido[3,4-b]indol-1-yl)-3,5-difluorophenyl)piperidine-4-carbonyl)azetidin-3-yl)-2-(2,6-dioxopiperidin-3-yl)-6,7-dihydropyrrolo[3,4-f]isoindole-1,3(2H,5H)-dione] was run?
Answer: Its value is “C (“C”: >100 nM)”.

Question: With `C[C@@H]1Cc2c([nH]c3ccccc23)[C@@H](c2c(F)cc(N3CC(C(=O)N4CCC(N5Cc6cc7c(cc6C5)C(=O)N(C5CCC(=O)NC5=O)C7=O)CC4)C3)cc2F)N1CC(F)F` (stereo partly drawn) [Compound B209, 6-(1-(1-(4-((1R,3R)-2-(2,2-difluoroethyl)-3-methyl-2,3,4,9-tetrahydro-1H-pyrido[3,4-b]indol-1-yl)-3,5-difluorophenyl)azetidine-3-carbonyl)piperidin-4-yl)-2-(2,6-dioxopiperidin-3-yl)-6,7-dihydropyrrolo[3,4-f]isoindole-1,3(2H,5H)-dione] as the molecule, how does the “Traditional Western Degradation Potency” value read?
Answer: Its value is “C (“C”: >100 nM)”.

Question: Which “Traditional Western Degradation Potency” value does the source give for `C[C@@H]1Cc2c([nH]c3ccccc23)[C@@H](c2c(F)cc(N3CC(C(=O)N4CCC(CN5Cc6cc7c(cc6C5)C(=O)N(C5CCC(=O)NC5=O)C7=O)CC4)C3)cc2F)N1CC(F)F` (stereo partly drawn) [Compound B210, 6-((1-(1-(4-((1R,3R)-2-(2,2-difluoroethyl)-3-methyl-2,3,4,9-tetrahydro-1H-pyrido[3,4-b]indol-1-yl)-3,5-difluorophenyl)azetidine-3-carbonyl)piperidin-4-yl)methyl)-2-(2,6-dioxopiperidin-3-yl)-6,7-dihydropyrrolo[3,4-f]isoindole-1,3(2H,5H)-dione] here?
Answer: The value was “C (“C”: >100 nM)”.

Question: With `C[C@@H]1Cc2c([nH]c3ccccc23)[C@@H](c2c(F)cc(N3CCC(CN4CCC(C(=O)N5Cc6cc7c(cc6C5)C(=O)N(C5CCC(=O)NC5=O)C7=O)CC4)CC3)cc2F)N1CC(F)F` (stereo partly drawn) [Compound B211, 6-(1-((1-(4-((1R,3R)-2-(2,2-difluoroethyl)-3-methyl-2,3,4,9-tetrahydro-1H-pyrido[3,4-b]indol-1-yl)-3,5-difluorophenyl)piperidin-4-yl)methyl)piperidine-4-carbonyl)-2-(2,6-dioxopiperidin-3-yl)-6,7-dihydropyrrolo[3,4-f]isoindole-1,3(2H,5H)-dione] as the molecule, how does the “Traditional Western Degradation Potency” value read?
Answer: The value was “C (“C”: >100 nM)”.

Question: How did the “Traditional Western Degradation Potency” value turn out when `C[C@@H]1Cc2c([nH]c3ccccc23)[C@@H](c2c(F)cc(N3CCC(CN4CC(C(=O)N5Cc6cc7c(cc6C5)C(=O)N(C5CCC(=O)NC5=O)C7=O)C4)CC3)cc2F)N1CC(F)F` (stereo partly drawn) [Compound B212, 6-(1-((1-(4-((1R,3R)-2-(2,2-difluoroethyl)-3-methyl-2,3,4,9-tetrahydro-1H-pyrido[3,4-b]indol-1-yl)-3,5-difluorophenyl)piperidin-4-yl)methyl)azetidine-3-carbonyl)-2-(2,6-dioxopiperidin-3-yl)-6,7-dihydropyrrolo[3,4-f]isoindole-1,3(2H,5H)-dione] was run?
Answer: The value was “C (“C”: >100 nM)”.

Question: Which “Traditional Western Degradation Potency” value does the source give for `C[C@@H]1Cc2c([nH]c3ccccc23)[C@@H](c2c(F)cc(N3CCC(CN4CCC(N5Cc6cc7c(cc6C5)C(=O)N(C5CCC(=O)NC5=O)C7=O)CC4)CC3)cc2F)N1CC(F)F` (stereo partly drawn) [Compound B213, 6-(1-((1-(4-((1R,3R)-2-(2,2-difluoroethyl)-3-methyl-2,3,4,9-tetrahydro-1H-pyrido[3,4-b]indol-1-yl)-3,5-difluorophenyl)piperidin-4-yl)methyl)piperidin-4-yl)-2-(2,6-dioxopiperidin-3-yl)-6,7-dihydropyrrolo[3,4-f]isoindole-1,3(2H,5H)-dione] here?
Answer: Its value is “A (“A”: <10 nM)”.

Question: `C[C@@H]1Cc2c([nH]c3ccccc23)[C@@H](c2c(F)cc(N3CCC(C(=O)N4CCC(N5Cc6cc7c(cc6C5)C(=O)N(C5CCC(=O)NC5=O)C7=O)CC4)CC3)cc2F)N1CC(C)(F)F` (stereo partly drawn) [Compound B214, 6-(1-(1-(4-((1R,3R)-2-(2,2-difluoropropyl)-3-methyl-2,3,4,9-tetrahydro-1H-pyrido[3,4-b]indol-1-yl)-3,5-difluorophenyl)piperidine-4-carbonyl)piperidin-4-yl)-2-(2,6-dioxopiperidin-3-yl)-6,7-dihydropyrrolo[3,4-f]isoindole-1,3(2H,5H)-dione] was tested. Which “Traditional Western Degradation Potency” value did it give?
Answer: The value was “A (“A”: <10 nM)”.
